Assays:
Format in all cases: cell-based
[1] = molecular target: T1, 5-HT3AR (serotonin (3) receptor subunit A, homopentamer) (Mus musculus, UniProt P23979); assay: cryo-EM structure ([…] Å); also TEVC inhibition of serotonin currents in oocytes
T1 construct: gene Htr3a; full-length, C-terminal 1D4-tag and four N-terminal strep-tags; modelled Thr7–Leu335 and Leu397–Ser462
T1 sequence (P23979 34-483 isoform P23979-2): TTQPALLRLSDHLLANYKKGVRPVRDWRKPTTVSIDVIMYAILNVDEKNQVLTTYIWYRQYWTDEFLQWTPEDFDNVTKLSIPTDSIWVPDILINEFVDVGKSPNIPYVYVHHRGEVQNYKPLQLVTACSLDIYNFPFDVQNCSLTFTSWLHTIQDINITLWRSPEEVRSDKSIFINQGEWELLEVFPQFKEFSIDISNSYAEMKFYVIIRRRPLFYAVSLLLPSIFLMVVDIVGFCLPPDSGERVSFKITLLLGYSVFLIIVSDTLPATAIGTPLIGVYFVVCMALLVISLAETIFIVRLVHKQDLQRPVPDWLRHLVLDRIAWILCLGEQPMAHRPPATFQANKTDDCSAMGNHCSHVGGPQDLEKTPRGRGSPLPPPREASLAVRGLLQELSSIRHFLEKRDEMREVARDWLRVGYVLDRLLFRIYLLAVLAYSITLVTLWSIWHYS

[2] = molecular target: T1, 5-HT3AR (serotonin (3) receptor subunit A, homopentamer); assay: as above; remark: listed apart in the source
[3] = molecular target: T1, 5-HT3AR (serotonin (3) receptor subunit A, homopentamer); assay: as above; remark: listed apart in the source
[4] = molecular target: T2, 5-HT3AR (serotonin (3) receptor subunit A, homopentamer) (Mus musculus, UniProt P23979); assay: two-electrode voltage clamp in oocytes, inhibition of serotonin-induced current on co-application
T2 construct: gene Htr3a; 5-HT3AR expressed in Xenopus laevis oocytes
T2 sequence (P23979 24-489): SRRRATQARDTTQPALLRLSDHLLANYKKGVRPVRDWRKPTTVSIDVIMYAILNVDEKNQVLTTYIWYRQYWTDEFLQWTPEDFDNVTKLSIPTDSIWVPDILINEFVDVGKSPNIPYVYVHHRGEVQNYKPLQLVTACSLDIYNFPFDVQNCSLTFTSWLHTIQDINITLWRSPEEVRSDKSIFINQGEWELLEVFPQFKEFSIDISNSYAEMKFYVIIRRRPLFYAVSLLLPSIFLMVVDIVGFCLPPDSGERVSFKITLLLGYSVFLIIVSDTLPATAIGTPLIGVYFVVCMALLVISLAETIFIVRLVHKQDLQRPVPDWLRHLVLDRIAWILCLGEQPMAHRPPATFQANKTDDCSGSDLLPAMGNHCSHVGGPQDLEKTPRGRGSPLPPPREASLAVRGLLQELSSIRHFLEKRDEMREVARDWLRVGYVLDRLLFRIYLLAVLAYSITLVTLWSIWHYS

Cc1[nH]cnc1CN1CCc2c(c3ccccc3n2C)C1=O [alosetron]
potency for TEVC inhibition of serotonin currents [1]: ~ 0.1 nM

O=C1c2cccc3c2[C@H](CCC3)CN1[C@@H]1CN2CCC1CC2 [palonosetron]
cryo-EM structure (3.32 Å); also TEVC inhibition of serotonin currents in oocyte [2]: ~ 1 nM

Cc1nccn1CC1CCc2c(c3ccccc3n2C)C1=O (stereo not shown) [ondansetron]
inhibition of serotonin currents in oocytes [3]: ~ 0.1 nM

CN1C2CCCC1CC(NC(=O)c1nn(C)c3ccccc13)C2 (stereo not shown) [granisetron]
two-electrode voltage clamp in oocytes, inhibition of serotonin-induced current [4]: ~ 1 nM
